# Values quoted from earlier work in US20220054380A1, “CANN[…] ESTERS FOR COSMETIC OR EDIBLE COMPOSITIONS” (EPM (IP), Inc., priority 2018, published 2022).
# Tests used:
# [1] = test system: rats; details: compared with CBDA, 5-HT1A receptor-dependent
# [2] = test system: rats; details: compared with CBDA, 5-HT1A receptor-dependent; remark: listed apart in the source
# [3] = test system: rats; details: oral ingestion, low dose (1 mg/kg), two rat models
smiles,measurement,setting,value
"C=C(C)C1CCC(C)=C[C@H]1c1c(O)cc(CCCCC)c(C(=O)OC)c1O (stereo partly drawn) [HU-580, Cannabidiolic Acid Methyl Ester]",potency at suppressing signs of acute and anticipatory nausea,[1],greater potency than CBDA
same,potency at suppressing signs of stress-induced anxiety,[2],greater potency than CBDA
same,anti-depressant effect,[3],potent anti-depressant effect
